According to patent publication US10618937B2, “Method of treating Alzheimer's disease” (INDUSTRY-ACADEMIC COOPERATION FOUNDATION GYEONGSANG …, priority 2016, dated 2020):

Tests used:
Type in all cases: in vivo
APP/PS1 mice = test: Thioflavin S staining / immunofluorescence analysis of amyloid plaques in brain; details: IP once every 2.5 days for 45 days
Procedure: Adiponectin receptor-activating novel peptide (5AA1) was IP administered to 10 week old APP/PS1 mice once every 2.5 days for 45 days, and then, to prepare a slide section, the brains of the mice were fixed by transcardial perfusion of ice-cold 4% paraformaldehyde. The brains were fixed in 4% paraformaldehyde for 72 hours, and then, transferred to 20% sucrose and maintained at a temperature of 4° C. for 72 hours. The brains were placed in an optimal cutting temperature (OCT) compound (A.O., USA), frozen in liquid nitrogen, and sectioned into coronal plane (14 μm) in CM 3050C cryostat (Leica, Germany). Pictures of tissue sections were taken on ProbeOn Plus charged slides (Fisher, USA).
Immunofluorescence analysis was performed by using minor modifications of the method described in the existing study (Shah et al., 2014; Shah et al., 2015). Slides containing tissue sections were washed twice with a 0.01 M PBS solution for 15 minutes. Proteinase K was added to the tissue sections, which were then cultured at a temperature of 37° C. for 5 minutes. The tissue sections were then reacted in a blocking solution (5% normal goat serum, 0.3% Triton X-100, PBS) for 1 hour. The slides were reacted overnight with the primary antibody (the same antibody used in the ‘Western blot analysis’) and then reacted with secondary TRITC- or FITC-conjugated antibodies (diluted 1:50 in PBS; Santa Cruz) at room temperature for 90 minutes. The slides were dipped in Prolong Antifade reagent (Molecular Probe, Eugene, Oreg., USA) and stained. All stained slides were analyzed with a confocal laser scanning microscope (Flouview FV 1000). Amyloid plaques were visualized in brain slices after Thioflavin S staining. The brain slices were washed twice with 0.01 M PBS for 10 minutes, and then immersed in fresh 1% Thioflavin S solution at room temperature for 10 minutes. The brain slices were then immersed in 70% ethanol for 5 minutes, then washed twice with water, counterstained with propidium iodide (PI) and covered with cover glass.
Morphological analysis and signals were analyzed with Image J software (open source software provided by the US NIH), and the analysis results were expressed as IOD (Integral Optical Density). The ratio of the amyloid deposit site in the proposed area was also quantified by using Image-J software.

normal mouse = test: Morris water maze test in normal (wild type) mice; details: normal mouse treated with peptide, IP
Procedure: (§1) Male C57BL/6J wild type mice and double transgenic B6.Cg-Tg (APPswe, PSENdE9) 85Dbo Mmjax (APP/PS1) AD-model mice were obtained from Jackson Laboratories (Bar Harbor, Me., USA). The brains of the double transfected mice express Swedish mutation-containing chimeric mouse-human amyloid precursor protein (Mo/HuAPP695swe) and mutant human presenilin 1 protein (PS1-dE9). The mice were fed with an unlimited supply of food and water at an animal breeding ground of a university at a temperature of 23° C., at the relative humidity of 60±10% and in the black and light cycle of 12 h/12 h. […]
The Morris Underwater Maze Test System was constructed as a circular water tank with a diameter of 100 cm and a height of 40 cm containing 15.5 cm depth of water (temperature of 23±1° C.) which was opaque with white ink added. […] The delay time for escaping from the water maze (the time to find the hidden escape platform) was calculated for each trial. […] For the probe experiment, the platform was removed, each mouse was allowed to freely swim for 60 seconds, the amount of time the mouse spent in the target quadrant was measured, and the number of platform positions the mouse passed by (where the platform was located during the hidden platform training). […] All data were recorded by using video-tracking software (SMART, Panlab Harward Apparatus, Bioscience Company, Holliston, Mass., USA).

APP/PS1 model mice = test: Y-maze test; details: 45 days after IP administration
Procedure: as §1, with “h. When the mice reached 10 months of age, they were transferred to the injection and behavior observation room for 1 week for purification. The maintenance and treatment for mice were performed according to the guidelines of the Animal Ethics Committee (IACUC) issued by Department of Biology, Division of Applied Life Science of Gyeongsang National University in Korea. Experiments according to the present disclosure were conducted according to the guidelines approved by the guidelines of the Animal Ethics Committee (IACUC) issued by Department of Biology, Division of Applied Life Science of Gyeongsang National University in Korea (approval ID: 125).” for “h.”
Alteration behavior ratio (%) was calculated as [set of overlapping triplets (consecutive entry into 3 different arms)/total entry−2]×100. […]

For “RGPCG (adiponectin receptor-activating peptide) [5AA1]”, which “amyloid β plaque in the cortex and hippocampus of the brain” value (APP/PS1 mice) is on record?
Its value is “remarkably reduced”.

What about the “latency (time to find the hidden escape platform)” value (normal mouse) of the same substance?
Its value is “less than 10 seconds”.

And the spontaneous alteration (APP/PS1 model mice)?
The spontaneous alteration was “restored”.
